The record followed here is PMC7269513 (Antimicrobial Agents and Chemotherapy, 2020).

Data set [1] deals with T1, VIM-1 (Pseudomonas aeruginosa, UniProt A0A0F7KYQ8). Put plainly: IC50 of beta-lactamase inhibition (nitrocefin hydrolysis). The format is biochemical. As to conditions: IC50 (nM) of drug.
In data set [2] the target is T2, SHV-12 (Klebsiella pneumoniae, UniProt P0AD64, E235K/G234S/L31Q). The data set is described as above. The data set is classed as biochemical. The note with it: read-out: IC50 (nM) of drug.
The target in another data set is P99 (Enterobacter cloacae, UniProt P05364). The description is as above. The data set is classed as biochemical. Here is the method:
(§1) […]; Initial rates of reaction were calculated and exported to Prism software to calculate IC50 values using the “dose-response—inhibition, variable slope (four parameters)” equation. Ki values were calculated by the method of Waley ([31]). This method was previously used to calculate Ki values for boronic fast-on–fast-off BLIs.

The target in the next data set is CTX-M-15 (Escherichia coli, UniProt Q9EXV5). Described as above. The data set is classed as biochemical. As to conditions: read-out: IC50 (nM) of drug. Here is the method: as §1
Data set [3] concerns the target T3, IMP-1 (Serratia marcescens, UniProt P52699). Put plainly: IC50 of beta-lactamase inhibition (imipenem hydrolysis). The format is biochemical.
For data set [4], the target named is T4, NDM-1 (Klebsiella pneumoniae, UniProt C7C422). Put plainly: biochemical.
For another data set, the target named is CTX-M-14 (Escherichia coli, UniProt Q9L5C7). Briefly: IC50 of beta-lactamase inhibition (nitrocefin hydrolysis). The format is biochemical. As to conditions: read-out: IC50 (nM) of drug.
In another data set the target is OXA-24 (Acinetobacter baumannii, UniProt Q8RLA6).
Data set [5] has as its target T5, OXA-48 (Klebsiella pneumoniae, UniProt Q6XEC0).
The next data set concerns the target OXA-58 (Acinetobacter baumannii, UniProt Q2TR58).
For a further data set, the target named is IMP-26 (Pseudomonas aeruginosa, UniProt D0V558). The data set is classed as biochemical. The note with it: hydrolysis by IMP-26.
The target of data set [6] is T6, OXA-23 (Acinetobacter baumannii, UniProt Q9L4P2).
Data set [7] deals with T7, KPC-2 (Klebsiella pneumoniae, UniProt Q9F663). The data set is classed as biochemical.
For data set [8], the target named is T4, NDM-1. The data set is classed as biochemical.
Data set [9] concerns the target T3, IMP-1.
Data set [10] addresses T1, VIM-1.
The target of the next data set is TEM-43 (Escherichia coli, UniProt P62593, E102K/M180T/R162H, species not given). The format is biochemical. As to conditions: hydrolysis by TEM-43.
Data set [11] deals with T2, SHV-12. The format is biochemical.
Another data set has as its target FRI-1 (Enterobacter cloacae, UniProt A0A0M5L4T8). Briefly: Km and kcat of nitrocefin or imipenem hydrolysis. The note with it: hydrolysis by FRI-1. The format is biochemical.
For the next data set, the target named is SME-2 (Serratia marcescens, UniProt P52682, V207Q). The format is biochemical.
In the next data set the target is KPC-3 (Klebsiella pneumoniae, UniProt Q9F663, H272Y). The data set is classed as biochemical. The note with it: hydrolysis by KPC-3.
Another data set addresses TEM-10 (Escherichia coli, UniProt P62593, E237K/R162S). The note with it: hydrolysis by TEM-10.
A further data set concerns the target BKC-1 (Klebsiella pneumoniae, UniProt A0A0F6QEY8). Briefly: Km and kcat of nitrocefin or imipenem hydrolysis. As to conditions: hydrolysis by BKC-1. The format is biochemical.
The target of data set [12] is T5, OXA-48. Briefly: IC50 of beta-lactamase inhibition (nitrocefin hydrolysis). The format is biochemical, Enterobacteriaceae. As to conditions: read-out: IC50 (nM) of drug.
In data set [13] the target is T6, OXA-23. Described as above. The format is biochemical. As to conditions: read-out: IC50 (nM) of drug.
Data set [14] has as its target T7, KPC-2. The data set is described as above. The data set is classed as biochemical. The note with it: KPC-2, class A; substrate nitrocefin; 10 min preincubation at 37°C; read-out: IC50 (nM) of drug.
The test system of data set [15] is O=C(Cc1cccs1)N[C@@H]1C(=O)N2C(C(=O)O)=C(/C=C/c3ccc([N+](=O)[O-])cc3[N+](=O)[O-])CS[C@H]12. Briefly: purified protein, by the assay type.
[16] abbreviates: P99, class C, substrate nitrocefin, 10 min preincubation at 37°C, read-out: IC50 (nM) of drug.

Where “and” joins values, the source holds several entries; their conditions need not be identical. Equal values may be shown once. Read-outs that look alike come from different tables or passages of the source. A value given as a limit tells only on which side of the number the result lay.

One may read the IC50 as the concentration at which inhibition is half-maximal. As usually defined, the Km is the substrate concentration at which the rate is half of its maximum. In general, kcat refers to the number of substrate molecules converted per active site and unit of time at saturation. As usually defined, the kcat/Km is the turnover number divided by the Michaelis constant.

Turning to `NC(=O)[C@@H]1CC[C@@H]2CN1C(=O)N2OS(=O)(=O)O` [Avibactam, avibactam], the IC50 against VIM-1 [1] is above 160000 nM; at SHV-12 [2], 0.61 ± 0.19 nM; at P99 (IC50 (nM) of drug), 26 ± 7 nM; at CTX-M-15, 0.56 ± 0.25 nM; at IMP-1 [3], above 160000 nM; at NDM-1 [4], above 160000 nM. On CTX-M-14, the IC50 was determined as 1.4 ± 0.4 nM.

`C[C@@H](O)[C@H]1C(=O)N2C(C(=O)O)=C(SCCN=CN)C[C@H]12` [Imipenem, imipenem]: the Km came to 1.2 µM at OXA-24; 1.5 µM on OXA-48 [5]; 1.3 µM on OXA-58; 6.6 µM on OXA-23 [6]; 70 µM on KPC-2 [7]; 206 µM at NDM-1 [8]. The Km at IMP-1 [9] is 66 µM; on VIM-1 [10] it was 13 µM. In addition, the kcat at OXA-24 amounted to 1.9 s⁻¹; at OXA-48 [5] it was 1.7 s⁻¹; at OXA-58, 0.66 s⁻¹; on IMP-26, 35 s⁻¹; at OXA-23 [6] it was 0.7 s⁻¹; at KPC-2 [7] it was 39 s⁻¹. Moreover, the kcat on NDM-1 [8] is 96 s⁻¹; on VIM-1 [10], 15 s⁻¹.

With `O=C(Cc1cccs1)N[C@@H]1C(=O)N2C(C(=O)O)=C(/C=C/c3ccc([N+](=O)[O-])cc3[N+](=O)[O-])CS[C@H]12` [Nitrocefin, nitrocefin], the kcat on TEM-43 came to 175 s⁻¹; at SHV-12 [11] (hydrolysis by SHV-12), 73 s⁻¹; at FRI-1, 176 s⁻¹; on SME-2 (hydrolysis by SME-2), 352 s⁻¹; at KPC-3, 182 s⁻¹; at IMP-26, 325 s⁻¹. For the same compound, the kcat on KPC-2 [7] (hydrolysis by KPC-2) is 206 s⁻¹; on NDM-1 [8] (hydrolysis by NDM-1) it was 27 s⁻¹; at TEM-10, 18 s⁻¹; on BKC-1, 721 s⁻¹. Further, the Km came out at 5.5 µM at SHV-12 [11], 59 µM on SME-2, 49 µM at KPC-2 [7] and 1.6 µM at NDM-1 [8].

Consider `O=C(NC1CCNCC1)[C@@H]1CC[C@@H]2CN1C(=O)N2OS(=O)(=O)O` [Relebactam, relebactam], for which the IC50 against VIM-1 [1] is above 160000 nM; at SHV-12 [2], 330 ± 50 nM; at P99 (setting [16]) it was 36 ± 4 nM; against IMP-1 [3] it was above 160000 nM; against NDM-1 [4] it was above 160000 nM; at CTX-M-14, 34 ± 10 nM.

`O=C(O)C[C@@H]1CC[C@H](NC(=O)Cc2cccs2)B(O)O1` [Vaborbactam, vaborbactam]: the IC50 against VIM-1 [1] was above 160000 nM; at OXA-48 [12], 6900 nM; on SHV-12 [2], 56 ± 11 nM; at OXA-23 [13], 120000 nM; at P99 (setting [16]) it was 88 ± 38 nM; on CTX-M-15 it was 92 ± 13 nM. Besides, the IC50 at IMP-1 [3] was above 160000 nM; on NDM-1 [4], above 160000 nM; on KPC-2 [14] it was 110 ± 30 nM; on CTX-M-14, 110 ± 40 nM.

For (Acinetobacter baumannii), in data set [15], the Km was 62 µM and 28 µM and 34 µM; the kcat is 357 s⁻¹ and 208 s⁻¹ and 518 s⁻¹; the kcat/Km is 5.8e+06 M⁻¹ s⁻¹ and 7.6e+06 M⁻¹ s⁻¹ and 1.5e+07 M⁻¹ s⁻¹.

As to (Enterobacter cloacae), in data set [15], the Km came out at 100 µM, the kcat came to 479 s⁻¹ and the kcat/Km came to 4.8e+06 M⁻¹ s⁻¹.

For (Escherichia coli), in data set [15], the Michaelis constant (Km) is 22 µM and 24 µM; the kcat was 334 s⁻¹ and 341 s⁻¹; the kcat/Km was 1.5e+07 M⁻¹ s⁻¹.

Turning to (Klebsiella pneumoniae), in [15], the Km came out at 29 µM, the kcat turned out to be 406 s⁻¹ and the kcat/Km is 1.4e+07 M⁻¹ s⁻¹.

(Pseudomonas aeruginosa PAO1): in [15], the Km is reported as 55 µM, the kcat is 133 s⁻¹ and the kcat/Km stood at 2.4e+06 M⁻¹ s⁻¹.

Consider (Serratia marcescens), for which, in [15], the Km was 26 µM, the kcat was 229 s⁻¹ and the kcat/Km amounted to 8.9e+06 M⁻¹ s⁻¹.
